Assay results taken from patent US4220647A, “1,2,3,4-Tetrahydroisoquinolines and the preparation thereof” (Fujisawa Pharmaceutical Co., Ltd., priority 1974, dated 1980).

Tested on: Intestinal motility in dogs (jejunum)
Experiment: Intestinal motility in dogs (inhibition of jejunal motility, balloon method)
Format: in vivo, dog (mongrel)
Conditions: Canis lupus familiaris; mongrel dogs 8 to 16 kg, urethane (1.5 g/kg) and morphine (15 mg/kg) anesthesia; balloon at jejunum, 10 cm H2O; maximum change in motility amplitude; route not given; read-out: 50% inhibition dose (ED50)
Procedure: Intestinal motility in dogs: Method: Mongrel dogs weighing 8 to 16 kg which were withheld from any food and water for 24 hours were anesthetized with a combination of urethane (1.5 g/kg) and morphine (15 mg/kg). A balloon was placed at the jejunum of the dog, compressed at a pressure of 10 cm. H2 O and connected to a strain gauge. Changes in the motility were principally recorded in terms of the amplitude of the movements, but the number of movements occurring were also taken into account. The maximum change in all the determinations served as the basis for calculations of the 50% inhibition dose (ED50).

| Structure (SMILES) | ED50 |
| --- | --- |
| Cl.Oc1cc2c(cc1O)C(CNc1ccc(Cl)cc1)NCC2 (stereo not drawn) [Compound No. 2, 1-(p-Chloroanilinomethyl)-6,7-dihydroxy-1,2,3,4-tetrahydroisoquinoline hydrochloride] | 1.5 µg/kg |
| Oc1cc2c(cc1O)C(CNc1ccc(F)cc1)NCC2 (stereo not drawn) [Compound No. 1, 1-(p-Fluoroanilinomethyl)-6,7-dihydroxy-1,2,3,4-tetrahydroisoquinoline d-camphor-10-sulfonate] | 3 µg/kg |
| Cl.Cl.Oc1ccc(NCC2NCCc3cc(O)c(O)cc32)cc1 (stereo not drawn) [Compound No. 3, 1-(p-Hydroxyanilinomethyl)-6,7-dihydroxy-1,2,3,4-tetrahydroisoquinoline dihydrochloride] | 4 µg/kg |
